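Each compound was tested at five concentrations against cells in 96-well plates for 48 hours. GI50 is the concentration that inhibits growth by half.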 Active and inactive are the calls of the source. Rule as the data show it: active = GI50 up to about 1.1 µM and inactive = higher.
What was measured:
Test in all cases: inhibition of tumour cell growth, NCI panel, 48 h
A549 = tested on: A549
EKVX = tested on: EKVX
HOP-62 = tested on: HOP-62
HT-29 = tested on: HT-29
IGROV-1 = tested on: IGROV-1
K562 = tested on: K562
MDA-MB-435 = tested on: MDA-MB-435
MOLT-4 = tested on: MOLT-4
NCI-H23 = tested on: NCI-H23
NCI-H460 = tested on: NCI-H460
NCI/ADR-RES = tested on: NCI/ADR-RES
OVCAR-3 = tested on: OVCAR-3
PC-3 = tested on: PC-3
SF-539 = tested on: SF-539
SK-MEL-5 = tested on: SK-MEL-5
SNB-19 = tested on: SNB-19
TK-10 = tested on: TK-10
UO-31 = tested on: UO-31
NCI-H226 = tested on: NCI-H226
OVCAR-4 = tested on: OVCAR-4

Measured: GI50

CCOC(=O)C(c1c[nH]c2ccccc12)(c1c[nH]c2ccccc12)c1c[nH]c2ccccc12
inactive: A549 30.7 µM | EKVX 37.7 µM | HOP-62 39.6 µM | HT-29 34.4 µM | IGROV-1 33.3 µM | K562 12.9 µM | MDA-MB-435 18.7 µM | MOLT-4 5.87 µM | NCI-H23 70.8 µM | NCI-H460 27.3 µM | NCI/ADR-RES 82.6 µM | OVCAR-3 27.5 µM | PC-3 19.7 µM | SF-539 42.4 µM | SK-MEL-5 34.4 µM | SNB-19 26.5 µM | TK-10 41.3 µM | UO-31 30.3 µM

Nc1nc2c(c(-c3ccc(F)cc3)n1)COC/C2=C\c1ccc(F)cc1
inactive: EKVX 18.6 µM | HOP-62 34.6 µM | HT-29 15.8 µM | IGROV-1 40.6 µM | K562 35.6 µM | MDA-MB-435 41.2 µM | MOLT-4 51.2 µM | NCI-H226 27.5 µM | NCI-H23 45.6 µM | NCI-H460 15.5 µM | NCI/ADR-RES 65.8 µM | OVCAR-3 51.4 µM | OVCAR-4 > 100 µM | PC-3 43.3 µM | SF-539 > 100 µM | SK-MEL-5 56 µM | SNB-19 24.8 µM | TK-10 30.1 µM | UO-31 14.7 µM

CCn1nc(C)c2c1C(=O)NC(C)C(=O)N2 (stereo unspecified)
inactive: A549 > 100 µM | EKVX > 100 µM | HT-29 > 100 µM | IGROV-1 > 100 µM | MDA-MB-435 > 100 µM | NCI-H23 > 100 µM | NCI-H460 > 100 µM | OVCAR-3 > 100 µM | OVCAR-4 > 100 µM | PC-3 > 100 µM | SF-539 > 100 µM | SK-MEL-5 > 100 µM | SNB-19 > 100 µM | TK-10 > 100 µM | UO-31 > 100 µM

C=C(Br)CNC(=O)CCC(=O)NCC(=C)Br
inactive: A549 > 100 µM | EKVX > 100 µM | HOP-62 > 100 µM | HT-29 > 100 µM | IGROV-1 > 100 µM | K562 > 100 µM | MDA-MB-435 > 100 µM | MOLT-4 > 100 µM | NCI-H226 > 100 µM | NCI-H23 > 100 µM | NCI-H460 > 100 µM | NCI/ADR-RES > 100 µM | OVCAR-3 > 100 µM | OVCAR-4 > 100 µM | PC-3 > 100 µM | SF-539 > 100 µM | SK-MEL-5 > 100 µM | SNB-19 > 100 µM | TK-10 > 100 µM | UO-31 > 100 µM

CC1(O)C2(c3ccccc3)CCC[N+]1(C)CC2 (stereo unspecified)
inactive: HOP-62 > 100 µM | HT-29 > 100 µM | IGROV-1 > 100 µM | K562 > 100 µM | MDA-MB-435 > 100 µM | MOLT-4 > 100 µM | NCI-H226 > 100 µM | NCI-H23 > 100 µM | NCI-H460 > 100 µM | NCI/ADR-RES > 100 µM | OVCAR-3 > 100 µM | OVCAR-4 > 100 µM | PC-3 > 100 µM | SK-MEL-5 > 100 µM | SNB-19 > 100 µM | TK-10 > 100 µM | UO-31 > 100 µM

O=C(CSCC(=O)N/N=C/c1cccc(C(F)(F)F)c1)N/N=C/c1cccc(C(F)(F)F)c1
inactive: EKVX > 100 µM | HOP-62 > 100 µM | HT-29 > 100 µM | IGROV-1 > 100 µM | K562 > 100 µM | MDA-MB-435 > 100 µM | NCI-H226 > 100 µM | NCI-H23 > 100 µM | NCI/ADR-RES > 100 µM | PC-3 > 100 µM | SF-539 > 100 µM | SK-MEL-5 > 100 µM | SNB-19 > 100 µM | TK-10 > 100 µM | UO-31 > 100 µM

COc1cc(C2S/C(=C/c3ccccc3)C(=O)N2c2ccc(NC(C)=O)cc2)cc(OC)c1OC (stereo unspecified)
inactive: A549 23.8 µM | EKVX 9.71 µM | HOP-62 30.4 µM | HT-29 13.2 µM | K562 16 µM | MDA-MB-435 18.2 µM | MOLT-4 4.61 µM | NCI-H23 20 µM | NCI/ADR-RES 23.4 µM | OVCAR-4 19.3 µM | PC-3 11.8 µM | SK-MEL-5 13.1 µM | SNB-19 38.1 µM | TK-10 37.2 µM | UO-31 24 µM

O=S(=O)(O)c1cc(S(=O)(=O)O)c2cc(/N=N/c3ccc(/N=N/c4ccc(/C=C/c5ccc(/N=[N+](/[O-])c6ccc(/C=C/c7ccc(/N=N/c8ccc(/N=N/c9ccc%10cc(S(=O)(=O)O)cc(S(=O)(=O)O)c%10c9)cc8)cc7S(=O)(=O)O)c(S(=O)(=O)O)c6)cc5S(=O)(=O)O)c(S(=O)(=O)O)c4)cc3)ccc2c1
inactive: A549 > 65.3 µM | EKVX 82.6 µM | HOP-62 > 100 µM | HT-29 > 55.1 µM | IGROV-1 > 100 µM | K562 > 100 µM | MOLT-4 > 79.3 µM | NCI-H226 > 50.5 µM | NCI-H23 > 77.8 µM | NCI-H460 > 40.3 µM | NCI/ADR-RES > 100 µM | OVCAR-3 > 31.6 µM | OVCAR-4 > 48.1 µM | SF-539 > 59 µM | SK-MEL-5 > 66.7 µM | SNB-19 25.9 µM | UO-31 70.8 µM

— ChEMBL document CHEMBL1201862, “PubChem BioAssay data set” (2004)
